The values below come from patent publication US20200361871A1 (Enterprise Therapeutics Ltd., priority 2018, published 2020).

human TMEM16A (TMEM16Aabc variant), sequence (Q5XXA6 with tags, fused parts or gaps DEL476-501): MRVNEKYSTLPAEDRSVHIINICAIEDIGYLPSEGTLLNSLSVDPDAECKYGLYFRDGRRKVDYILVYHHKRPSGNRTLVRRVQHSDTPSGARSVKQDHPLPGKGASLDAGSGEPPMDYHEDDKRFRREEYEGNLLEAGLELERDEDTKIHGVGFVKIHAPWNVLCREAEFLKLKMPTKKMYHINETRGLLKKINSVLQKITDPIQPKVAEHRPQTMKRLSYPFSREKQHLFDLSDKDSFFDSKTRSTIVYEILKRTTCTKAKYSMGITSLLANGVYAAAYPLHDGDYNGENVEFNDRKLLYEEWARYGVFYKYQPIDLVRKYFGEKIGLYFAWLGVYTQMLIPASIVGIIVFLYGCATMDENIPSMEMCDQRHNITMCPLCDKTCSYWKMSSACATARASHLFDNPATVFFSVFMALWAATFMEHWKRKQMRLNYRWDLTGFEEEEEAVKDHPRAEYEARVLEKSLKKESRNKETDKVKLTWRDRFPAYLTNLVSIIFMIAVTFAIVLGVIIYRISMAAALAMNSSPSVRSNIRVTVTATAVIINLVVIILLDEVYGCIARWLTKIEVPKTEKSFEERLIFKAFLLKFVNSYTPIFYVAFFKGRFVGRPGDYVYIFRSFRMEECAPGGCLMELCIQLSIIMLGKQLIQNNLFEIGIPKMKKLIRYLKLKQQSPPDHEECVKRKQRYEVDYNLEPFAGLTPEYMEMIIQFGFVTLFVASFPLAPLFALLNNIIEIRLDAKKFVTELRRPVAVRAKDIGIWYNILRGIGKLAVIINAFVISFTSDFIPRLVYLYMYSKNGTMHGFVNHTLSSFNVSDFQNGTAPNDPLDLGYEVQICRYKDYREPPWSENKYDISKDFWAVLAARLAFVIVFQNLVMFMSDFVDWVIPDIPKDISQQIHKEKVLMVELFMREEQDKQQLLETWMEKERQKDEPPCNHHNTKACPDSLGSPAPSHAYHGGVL

One experiment addresses human TMEM16A (TMEM16Aabc variant) (Homo sapiens, UniProt Q5XXA6, DEL476-501, form not given). In words: Automated whole-cell patch clamp (Qpatch) TMEM16A potentiator assay in FRT cells stably expressing human TMEM16A. It counts as cell-based. The following applies: 3.33 μM solution of test compound; percentage increase of baseline TMEM16A current. The method, boiled down: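 Potentiation was read as the rise in peak +70 mV current over baseline (%), from cumulative 5-min additions of compound. Recordings used whole-cell automated patch of FRT cells stably carrying human TMEM16Aabc, with pipette Ca2+ buffered to give ~20% maximal current. EC50 and efficacy came from concentration-response fits.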
(In general: Patch clamp records ionic current or voltage across a cell membrane.)
`CC(C)NC(=O)c1cc(NC(=O)Cc2cc(F)ccc2O)ccn1` [Example 81.2, 4-[[2-(5-Fluoro-2-hydroxy-phenyl)acetyl]amino]-N-isopropyl-pyridine-2-carboxamide]: the “% Potentiation @ 3.33 μM Avg” value was 103%.

In the case of `C#CC(C)(C)NC(=O)c1cc(NC(=O)Cc2cc(F)ccc2O)ccn1` [Example 81.3, N-(1,1-Dimethylprop-2-ynyl)-4-[[2-(5-fluoro-2-hydroxy-phenyl)acetyl]amino] pyridine-2-carboxamide], the “% Potentiation @ 3.33 μM Avg” value is reported as 129%.

`O=C(Cc1cc(F)ccc1O)Nc1ccnc(C(=O)NC23CCC(F)(C2)C3)c1` [Example 81.4, N-(4-Fluoro-1-bicyclo[2.1.1]hexanyl)-4-[[2-(5-fluoro-2-hydroxy-phenyl)acetyl]amino] pyridine-2-carboxamide]: the “% Potentiation @ 3.33 μM Avg” value is reported as 122%.

On to `O=C(Cc1cc(F)ccc1O)Nc1ccnc(C(=O)NC2(CO)CCC2)c1` [Example 81.5, 4-[[2-(5-Fluoro-2-hydroxy-phenyl)acetyl]amino]-N-[1-(hydroxymethyl)cyclobutyl] pyridine-2-carboxamide], for which the “% Potentiation @ 3.33 μM Avg” value is 74%.

For the compound `COc1ccc(Cl)cc1CC(=O)Nc1cc(C(=O)NC(C)(C)C)ncn1` [Example 82, N-tert-Butyl-6-[[2-(5-chloro-2-methoxy-phenyl)acetyl]amino]pyrimidine-4-carboxamide], the “% Potentiation @ 3.33 μM Avg” value turned out to be 88%.

On to `CC(C)(C#N)NC(=O)c1cc(NC(=O)c2ccsc2)ccn1` [Example 83, N-(1-Cyano-1-methyl-ethyl)-4-(thiophene-3-carbonylamino)pyridine-2-carboxamide], for which the “% Potentiation @ 3.33 μM Avg” value is given as 6%.

Take `CC(C)(C#N)NC(=O)c1cc(NC(=O)CC2CCCCC2)ccn1` [Example 83.1, N-(1-Cyano-1-methyl-ethyl)-4-[(2-cyclohexylacetyl)amino]pyridine-2-carboxamide]: the “% Potentiation @ 3.33 μM Avg” value is on record as 159%.

As for `CC(C)(C#N)NC(=O)c1cc(NC(=O)C2CCCCC2)ccn1` [Example 83.2, N-(1-Cyano-1-methyl-ethyl)-4-(cyclohexanecarbonylamino)pyridine-2-carboxamide], the “% Potentiation @ 3.33 μM Avg” value was 41%.

For the compound `CC(C)(C#N)NC(=O)c1cc(NC(=O)C2CCC(F)(F)C2)ccn1` (centres unmarked) [Example 83.3, N-(1-Cyano-1-methyl-ethyl)-4-[(3,3-difluorocyclopentanecarbonyl)amino]pyridine-2-carboxamide], the “% Potentiation @ 3.33 μM Avg” value is listed as 16%.

On to `CC(C)(C#N)NC(=O)c1cc(NC(=O)C2(C)CCCC2)ccn1` [Example 83.4, N-(1-Cyano-1-methyl-ethyl)-4-[(1-methylcyclopentanecarbonyl)amino]pyridine-2-carboxamide], for which the “% Potentiation @ 3.33 μM Avg” value came to 58%.

`CC(C)(C#N)NC(=O)c1cc(NC(=O)CCC2CCCCC2)ccn1` [Example 83.5, N-(1-Cyano-1-methyl-ethyl)-4-(3-cyclohexylpropanoylamino)pyridine-2-carboxamide]: the “% Potentiation @ 3.33 μM Avg” value is on record as 185%.

As to `CC(C)(C#N)NC(=O)c1cc(NC(=O)CC2CC3CCC2C3)ccn1` (centres unmarked) [Example 83.6, 4-(2-{Bicyclo[2.2.1]heptan-2-yl}acetamido)-N-(1-cyano-1-methylethyl)pyridine-2-carboxamide], the “% Potentiation @ 3.33 μM Avg” value stood at 248%.

On to `CC1(CC(=O)Nc2ccnc(C(=O)NC(C)(C)C#N)c2)CCCCC1` [Example 83.7, N-(1-Cyano-1-methyl-ethyl)-4-[[2-(1-methylcyclohexyl)acetyl]amino]pyridine-2-carboxamide], for which the “% Potentiation @ 3.33 μM Avg” value stood at 147%.

Turning to `CC(C)(C#N)NC(=O)c1cc(NC(=O)c2cnc(C3CC3)nc2)ccn1` [Example 83.8, N-[2-[(1-Cyano-1-methyl-ethyl)carbamoyl]-4-pyridyl]-2-cyclopropyl-pyrimidine-5-carboxamide], the “% Potentiation @ 3.33 μM Avg” value was found to be 35%.

`CC(C)Cc1cc(C(=O)Nc2ccnc(C(=O)NC(C)(C)C#N)c2)on1` [Example 83.9, N-[2-[(1-Cyano-1-methyl-ethyl)carbamoyl]-4-pyridyl]-3-isobutyl-isoxazole-5-carboxamide]: the “% Potentiation @ 3.33 μM Avg” value was 18%.

With `CC(C)(C#N)NC(=O)c1cc(NC(=O)CC2CCC(F)(F)CC2)ccn1` [Example 83.10, N-(1-Cyano-1-methyl-ethyl)-4-[[2-(4,4-difluorocyclohexyl)acetyl]amino]pyridine-2-carboxamide], the “% Potentiation @ 3.33 μM Avg” value is on record as 62%.

Take `CC(C)(C#N)NC(=O)c1cc(NC(=O)C2(Cc3ccccc3)CC2)ccn1` [Example 83.11, 4-[(1-Benzylcyclopropanecarbonyl)amino]-N-(1-cyano-1-methyl-ethyl)pyridine-2-carboxamide]: the “% Potentiation @ 3.33 μM Avg” value stood at 13%.

Consider `COc1cc(CCC(=O)Nc2ccnc(C(=O)NC(C)(C)C#N)c2)ccn1` [Example 83.13, N-(1-Cyano-1-methyl-ethyl)-4-[3-(2-methoxy-4-pyridyl)propanoylamino]pyridine-2-carboxamide], for which the “% Potentiation @ 3.33 μM Avg” value was -1%.

For `Cn1nc(C(C)(C)C)cc1C(=O)Nc1ccnc(C(=O)NC(C)(C)C#N)c1` [Example 83.14, 4-[(5-tert-Butyl-2-methyl-pyrazole-3-carbonyl)amino]-N-(1-cyano-1-methyl-ethyl)pyridine-2-carboxamide], the “% Potentiation @ 3.33 μM Avg” value is 70%.

Consider `CC(C)(C#N)NC(=O)c1cc(NC(=O)c2ccccc2-n2cccn2)ccn1` [Example 83.15, N-(1-Cyano-1-methyl-ethyl)-4-[(2-pyrazol-1-ylbenzoyl)amino]pyridine-2-carboxamide], for which the “% Potentiation @ 3.33 μM Avg” value is recorded as -10%.

As for `CC(C)(C#N)NC(=O)c1cc(NC(=O)c2cccc(C(F)(F)F)n2)ccn1` [Example 83.16, N-[2-[(1-Cyano-1-methyl-ethyl)carbamoyl]-4-pyridyl]-6-(trifluoromethyl)pyridine-2-carboxamide], the “% Potentiation @ 3.33 μM Avg” value worked out at 60%.

Consider `CC(C)(C#N)NC(=O)c1cc(NC(=O)c2ccc3c(c2)OCC(=O)N3)ccn1` [Example 83.17, N-[2-[(1-Cyano-1-methyl-ethyl)carbamoyl]-4-pyridyl]-3-oxo-4H-1,4-benzoxazine-7-carboxamide], for which the “% Potentiation @ 3.33 μM Avg” value worked out at 8%.

Regarding `CCn1c(C(=O)Nc2ccnc(C(=O)NC(C)(C)C#N)c2)cc2ccccc21` [Example 83.18, N-[2-[(1-Cyano-1-methyl-ethyl)carbamoyl]-4-pyridyl]-1-ethyl-indole-2-carboxamide], the “% Potentiation @ 3.33 μM Avg” value was 16%.

Take `CC(C)(C#N)NC(=O)c1cc(NC(=O)c2ccnn2CC(F)(F)F)ccn1` [Example 83.19, N-(1-Cyano-1-methyl-ethyl)-4-[[2-(2,2,2-trifluoroethyl)pyrazole-3-carbonyl]amino]pyridine-2-carboxamide]: the “% Potentiation @ 3.33 μM Avg” value turned out to be 28%.

On to `CC(C)(C#N)NC(=O)c1cc(NC(=O)c2conc2-c2ccccc2)ccn1` [Example 83.20, N-[2-[(1-Cyano-1-methyl-ethyl)carbamoyl]-4-pyridyl]-3-phenyl-isoxazole-4-carboxamide], for which the “% Potentiation @ 3.33 μM Avg” value is listed as 9%.

Take `CC(C)(C#N)NC(=O)c1cc(NC(=O)c2cnn(Cc3ccccc3)c2)ccn1` [Example 83.21, 4-[(1-Benzylpyrazole-4-carbonyl)amino]-N-(1-cyano-1-methyl-ethyl)pyridine-2-carboxamide]: the “% Potentiation @ 3.33 μM Avg” value was 70%.

Regarding `Cn1nc(-c2ccccc2)cc1C(=O)Nc1ccnc(C(=O)NC(C)(C)C#N)c1` [Example 83.22, N-(1-Cyano-1-methyl-ethyl)-4-[(2-methyl-5-phenyl-pyrazole-3-carbonyl)amino]pyridine-2-carboxamide], the “% Potentiation @ 3.33 μM Avg” value is recorded as 85%.

In the case of `Cc1noc(-c2ccccc2C(=O)Nc2ccnc(C(=O)NC(C)(C)C#N)c2)n1` [Example 83.23, N-(1-Cyano-1-methyl-ethyl)-4-[[2-(3-methyl-1,2,4-oxadiazol-5-yl)benzoyl]amino]pyridine-2-carboxamide], the “% Potentiation @ 3.33 μM Avg” value is recorded as -11%.

For the compound `Cc1nn(-c2ccccc2)cc1C(=O)Nc1ccnc(C(=O)NC(C)(C)C#N)c1` [Example 83.24, N-(1-Cyano-1-methyl-ethyl)-4-[(3-methyl-1-phenyl-pyrazole-4-carbonyl)amino]pyridine-2-carboxamide], the “% Potentiation @ 3.33 μM Avg” value worked out at 55%.

For `CC(C)(C#N)NC(=O)c1cc(NC(=O)c2cccnc2Oc2ccccc2)ccn1` [Example 83.25, N-[2-[(1-Cyano-1-methyl-ethyl)carbamoyl]-4-pyridyl]-2-phenoxy-pyridine-3-carboxamide], the “% Potentiation @ 3.33 μM Avg” value is reported as -8%.

With `Cc1cc(C(=O)Nc2ccnc(C(=O)NC(C)(C)C#N)c2)c(C)n1Cc1cccs1` [Example 83.26, N-(1-Cyano-1-methyl-ethyl)-4-[[2,5-dimethyl-1-(2-thienylmethyl)pyrrole-3-carbonyl]amino]pyridine-2-carboxamide], the “% Potentiation @ 3.33 μM Avg” value came out at 95%.

Consider `COc1ccccc1-c1cc(C(=O)Nc2ccnc(C(=O)NC(C)(C)C#N)c2)no1` [Example 83.27, N-[2-[(1-Cyano-1-methyl-ethyl)carbamoyl]-4-pyridyl]-5-(2-methoxyphenyl)isoxazole-3-carboxamide], for which the “% Potentiation @ 3.33 μM Avg” value is given as -11%.

With `Cc1nc(-c2ccccc2)sc1C(=O)Nc1ccnc(C(=O)NC(C)(C)C#N)c1` [Example 83.28, N-[2-[(1-Cyano-1-methyl-ethyl)carbamoyl]-4-pyridyl]-4-methyl-2-phenyl-thiazole-5-carboxamide], the “% Potentiation @ 3.33 μM Avg” value was 20%.

For `CC(=O)Nc1ccc(C(=O)Nc2ccnc(C(=O)NC(C)(C)C#N)c2)cc1` [Example 83.29, 4-[(4-Acetamidobenzoyl)amino]-N-(1-cyano-1-methyl-ethyl)pyridine-2-carboxamide], the “% Potentiation @ 3.33 μM Avg” value is -9%.

Staying with this experiment, now noted: calculated EC50, Qpatch TMEM16A current at +70 mV.
In the case of `CC(C)NC(=O)c1cc(NC(=O)Cc2cc(F)ccc2O)ccn1` [Example 81.2, 4-[[2-(5-Fluoro-2-hydroxy-phenyl)acetyl]amino]-N-isopropyl-pyridine-2-carboxamide], the EC50 (in general, the midpoint of the concentration-response curve) is 420 nM.

Take `C#CC(C)(C)NC(=O)c1cc(NC(=O)Cc2cc(F)ccc2O)ccn1` [Example 81.3, N-(1,1-Dimethylprop-2-ynyl)-4-[[2-(5-fluoro-2-hydroxy-phenyl)acetyl]amino] pyridine-2-carboxamide]: the EC50 was 40 nM.

As to `O=C(Cc1cc(F)ccc1O)Nc1ccnc(C(=O)NC23CCC(F)(C2)C3)c1` [Example 81.4, N-(4-Fluoro-1-bicyclo[2.1.1]hexanyl)-4-[[2-(5-fluoro-2-hydroxy-phenyl)acetyl]amino] pyridine-2-carboxamide], the EC50 was 40 nM.

Take `COc1ccc(Cl)cc1CC(=O)Nc1cc(C(=O)NC(C)(C)C)ncn1` [Example 82, N-tert-Butyl-6-[[2-(5-chloro-2-methoxy-phenyl)acetyl]amino]pyrimidine-4-carboxamide]: the EC50 was 720 nM.
